Experimental data: the PolyMetriX glass transition set

Structure (SMILES) | glass transition temperature
*C(=O)c1ccc2c(c1)C(=O)N(c1ccc(Oc3ccc(C(=O)c4ccc5cc(C(=O)c6ccc(Oc7ccc(N8C(=O)c9ccc(*)cc9C8=O)cc7)cc6)ccc5c4)cc3)cc1)C2=O (repeat unit) | 246.00 °C
*C(=O)c1ccc2c(c1OCc1ccccc1[N+](=O)[O-])C(=O)N(c1ccc(Oc3ccc(N4C(=O)c5ccc(*)c(OCc6ccccc6[N+](=O)[O-])c5C4=O)cc3)cc1)C2=O (repeat unit) | 198.00 °C
*COc1ccc(C(C)(C)c2ccc(O*)cc2)cc1 (repeat unit) | 90.00 °C
*OP(=O)(Oc1ccc(C(C)(C)c2ccc(*)cc2)cc1)Oc1c(Cl)c(Cl)c(Cl)c(Cl)c1Cl (repeat unit) | 130.00 °C
*OP(=O)(Oc1ccc(C(C)(C)c2ccc(*)cc2)cc1)Oc1c(Cl)cccc1Cl (repeat unit) | 96.00 °C
*OP(=O)(Oc1ccccc1)Oc1ccc(C(C)(C)c2ccc(*)cc2)cc1 (repeat unit) | 74.50 °C
*OS(=O)(=O)c1cccc(S(=O)(=O)Oc2ccc(C(C)(C)c3ccc(*)cc3)cc2)c1 (repeat unit) | 124.00 °C
*O[Si](Oc1ccc(C2(c3ccc(*)c(C)c3)c3ccccc3-c3ccccc32)cc1C)(c1ccccc1)c1ccccc1 (repeat unit) | 171.00 °C
*Oc1ccc(-c2ccc(-c3ccc(Oc4ccc(C(C)(C)c5ccc(*)cc5)cc4)c(C(F)(F)F)c3)cc2)cc1C(F)(F)F (repeat unit) | 192.00 °C
*Oc1ccc(/C=C/C(=O)c2ccc(Oc3ccc(C(C)(C)c4ccc(*)cc4)cc3)cc2)cc1 (repeat unit) | 152.00 °C
*Oc1ccc(/C=C/C(=O)c2ccc(Oc3ccc(C(C)(c4ccccc4)c4ccc(*)cc4)cc3)cc2)cc1 (repeat unit) | 167.00 °C
*Oc1ccc(/C=N/N=C/c2ccc(Oc3ccc(C(C)(C)c4ccc(*)cc4)cc3)cc2)cc1 (repeat unit) | 163.00 °C
*Oc1ccc(C(C)(C)c2ccc(C(C)(C)c3ccc(Oc4ccc(C(=O)Nc5ccc(NC(=O)c6ccc(*)cc6)cc5)cc4)cc3)cc2)cc1 (repeat unit) | 163.00 °C
*Oc1ccc(C(C)(C)c2ccc(Oc3ccc(C(=O)C(=O)c4ccc(*)cc4)cc3)cc2)cc1 (repeat unit) | 152.00 °C
*Oc1ccc(C(C)(C)c2ccc(Oc3ccc(C(=O)Nc4ccc(NC(=O)c5ccc(*)cc5)cc4)cc3)cc2)cc1 (repeat unit) | 230.00 °C
*Oc1ccc(C(C)(C)c2cccc(C(C)(C)c3ccc(Oc4ccc(C(=O)Nc5ccc(Cc6ccc(NC(=O)c7ccc(*)cc7)cc6)cc5)cc4)cc3)c2)cc1 (repeat unit) | 149.00 °C
*Oc1ccc(C(C)(c2ccccc2)c2ccc(Oc3ccc(C(=O)C(=O)c4ccc(*)cc4)cc3)cc2)cc1 (repeat unit) | 177.00 °C
*Oc1ccc(C2(c3ccc(Oc4ccc(/C=N/N=C/c5ccc(*)cc5)cc4)cc3)c3ccccc3-c3ccccc32)cc1 (repeat unit) | 227.00 °C
*Oc1ccc(NC(=O)c2ccc(Oc3ccc(C(C)(C)c4ccc(C(C)(C)c5ccc(Oc6ccc(C(=O)Nc7ccc(Oc8ccc(C(c9ccc(*)cc9)(C(F)(F)F)C(F)(F)F)cc8)cc7)cc6)cc5)cc4)cc3)cc2)cc1 (repeat unit) | 169.00 °C
*Oc1ccc(S(=O)(=O)c2ccc(-c3ccc(*)cc3)cc2)cc1 (repeat unit) | 269.00 °C
*Oc1ccc(S(=O)(=O)c2ccc(Oc3ccc(/C=N/c4ccc(Oc5ccc(/N=C/c6ccc(*)cc6)cc5)cc4)cc3)cc2)cc1 (repeat unit) | 162.00 °C
*Oc1ccc(S(=O)(=O)c2cccc3c(S(=O)(=O)c4ccc(Oc5ccc(-c6ccc(*)cc6)cc5)cc4)cccc23)cc1 (repeat unit) | 248.00 °C
*c1c(F)c(F)c(-c2c(F)c(F)c(Oc3ccc(-c4nn(*)c(=O)c5ccccc45)c(F)c3)c(F)c2F)c(F)c1F (repeat unit) | 253.00 °C
*c1ccc(-c2ccc(Oc3ccc(C4(C)CC(C)(C)c5ccc(Oc6ccc(-c7ccc(-n8c(=O)c9cc%10c(=O)n(*)c(=O)c%10cc9c8=O)cc7)cc6C(F)(F)F)cc54)cc3)c(C(F)(F)F)c2)cc1 (repeat unit) | 265.00 °C
*c1ccc(-c2nc3cc(C(=O)c4ccc5nc(-c6ccccc6)c(-c6ccc(N7C(=O)C8OC9C(=O)N(*)C(=O)C9C8C7=O)cc6)nc5c4)ccc3nc2-c2ccccc2)cc1 (repeat unit) | 255.00 °C
*c1ccc(Oc2cc3ccccc3cc2Oc2ccc(-n3c(=O)c4cc5c(=O)n(*)c(=O)c5cc4c3=O)cc2)cc1 (repeat unit) | 316.00 °C
*c1ccc(Oc2ccc(-c3cc(-c4ccccc4)c4cc(-c5ccc6nc(*)cc(-c7ccccc7)c6c5)ccc4n3)cc2)cc1 (repeat unit) | 305.00 °C
*c1ccc(Oc2ccc(-c3cc(-c4ccccc4)c4cc(C5(c6ccc7nc(*)cc(-c8ccccc8)c7c6)c6ccccc6-c6ccccc65)ccc4n3)cc2)cc1 (repeat unit) | 315.00 °C

Structure (SMILES) | glass transition temperature
*c1ccc(Oc2ccc(-c3cc(-c4ccccc4)c4cc5c(-c6ccccc6)cc(*)nc5cc4n3)cc2)cc1 (repeat unit) | 380.50 °C
*c1ccc(Oc2ccc(-c3cc(-c4ccccc4)c4cc5nc(*)cc(-c6ccccc6)c5cc4n3)cc2)cc1 (repeat unit) | 365.00 °C
*c1ccc(Oc2ccc(-c3ccc(-c4ccc(-c5ccc(Oc6ccc(-c7c8c(c(*)c9ccccc79)C(=O)N(c7ccccc7)C8=O)cc6)c(C(F)(F)F)c5)cc4)cc3)cc2C(F)(F)F)cc1 (repeat unit) | 334.00 °C
*c1ccc(Oc2ccc(-c3ccc(-c4ccc(Oc5ccc(-c6c7c(c(*)c8ccccc68)C(=O)N(c6ccccc6)C7=O)cc5)c(C(F)(F)F)c4)cc3)cc2C(F)(F)F)cc1 (repeat unit) | 317.00 °C
*c1ccc(Oc2ccc(-c3ccc(Oc4ccc(-c5cnc6cc(-c7ccc8nc(*)cnc8c7)ccc6n5)cc4)cc3)cc2)cc1 (repeat unit) | 213.00 °C
*c1ccc(Oc2ccc(-c3ccc(Oc4ccc(-c5nnc(*)c6c(-c7ccc(F)cc7)c(-c7ccc(F)cc7)c(-c7ccc(F)cc7)c(-c7ccc(F)cc7)c56)cc4)cc3)cc2)cc1 (repeat unit) | 320.00 °C
*c1ccc(Oc2ccc(-c3ccc(Oc4ccc(N5C(=O)CC(=O)N(*)C5=S)cc4)cc3)cc2)cc1 (repeat unit) | 158.50 °C
*c1ccc(Oc2ccc(-c3cccc(-c4ccc(Oc5ccc(-c6c7c(c(*)c8ccccc68)C(=O)N(c6ccccc6)C7=O)cc5)c(C(F)(F)F)c4)c3)cc2C(F)(F)F)cc1 (repeat unit) | 271.00 °C
*c1ccc(Oc2ccc(-c3cnc4cc5nc(*)cnc5cc4n3)cc2)cc1 (repeat unit) | 353.00 °C
*c1ccc(Oc2ccc(-c3cnc4cc5ncc(*)nc5cc4n3)cc2)cc1 (repeat unit) | 353.00 °C
*c1ccc(Oc2ccc(-c3cnc4ccc(-c5ccc6ncc(*)nc6c5)cc4n3)cc2)cc1 (repeat unit) | 305.00 °C
*c1ccc(Oc2ccc(-n3c(=O)c4c(Oc5ccc(OC)cc5)c5c(=O)n(*)c(=O)c5c(Oc5ccc(OC)cc5)c4c3=O)cc2)cc1 (repeat unit) | 303.50 °C
*c1ccc(Oc2ccc(-n3c(=O)c4c(Oc5ccc(OCCCC)cc5)c5c(=O)n(*)c(=O)c5c(Oc5ccc(OCCCC)cc5)c4c3=O)cc2)cc1 (repeat unit) | 269.50 °C
*c1ccc(Oc2ccc(-n3c(=O)c4cc5c(=O)n(-c6ncc(*)s6)c(=O)c5cc4c3=O)cc2)cc1 (repeat unit) | 328.80 °C
*c1ccc(Oc2ccc(-n3nc(-c4ccccc4)cc3-c3cccc(-c4cc(-c5ccccc5)nn4*)c3)cc2)cc1 (repeat unit) | 232.00 °C
*c1ccc(Oc2ccc(C(C)(C)c3ccc(Oc4ccc(-c5ccc(*)s5)cc4C(F)(F)F)cc3)cc2)c(C(F)(F)F)c1 (repeat unit) | 130.00 °C
*c1ccc(Oc2ccc(C(C)(C)c3ccc(Oc4ccc(-c5cccc(*)n5)cc4C(F)(F)F)cc3)cc2)c(C(F)(F)F)c1 (repeat unit) | 125.00 °C
*c1ccc(Oc2ccc(C(C)(C)c3ccc(Oc4ccc(-c5nc(-c6ccccn6)nnc5*)cc4)cc3)cc2)cc1 (repeat unit) | 220.00 °C
*c1ccc(Oc2ccc(C(C)(C)c3ccc(Oc4ccc(-c5ncc(*)o5)cc4C(F)(F)F)cc3)cc2)c(C(F)(F)F)c1 (repeat unit) | 185.00 °C
*c1ccc(Oc2ccc(C(C)(C)c3ccc(Oc4ccc(-c5nnc(*)c6c(-c7ccc(F)cc7)c(-c7ccc(F)cc7)c(-c7ccc(F)cc7)c(-c7ccc(F)cc7)c56)cc4)cc3)cc2)cc1 (repeat unit) | 282.00 °C
*c1ccc(Oc2ccc(C(c3ccc(Oc4ccc(-c5nc(*)nc(-c6ccccc6)n5)cc4)cc3)(C(F)(F)F)C(F)(F)F)cc2)cc1 (repeat unit) | 241.00 °C
*c1ccc(Oc2ccc(P(=O)(c3ccccc3)c3ccc(Oc4ccc(-c5cc(*)[nH]n5)cc4)cc3)cc2)cc1 (repeat unit) | 296.00 °C
*c1ccc(Oc2ccc(P(=O)(c3ccccc3)c3ccc(Oc4ccc(-c5cc(*)n(-c6ccccc6)n5)cc4)cc3)cc2)cc1 (repeat unit) | 239.00 °C
*c1ccc(Oc2ccc(P(=O)(c3ccccc3)c3ccc(Oc4ccc(-c5nc(-c6ccccc6)[nH]c5*)cc4)cc3)cc2)cc1 (repeat unit) | 318.00 °C
*c1ccc(Oc2ccc(S(=O)(=O)c3ccc(Oc4ccc(-c5nc6ccccc6n5-c5ccc(-n6c(*)nc7ccccc76)cc5)cc4)cc3)cc2)cc1 (repeat unit) | 270.00 °C
*c1cccc(P(C)(=O)c2cccc(N3C(=O)c4ccc(NC(=O)OCCOc5ccc(C(C)(C)c6ccc(OCCOC(=O)Nc7ccc8c(c7)C(=O)N(*)C8=O)cc6)cc5)cc4C3=O)c2)c1 (repeat unit) | 211.00 °C
*c1nnc(-c2ccc(Oc3ccc(C(c4ccc(Oc5ccc(*)c6ccccc56)cc4)(C(F)(F)F)C(F)(F)F)cc3)c3ccccc23)o1 (repeat unit) | 220.00 °C
